Biological target: T1, APOL1 (Homo sapiens, UniProt O14791)
T1 sequence (O14791 1-398 S342G/I384M): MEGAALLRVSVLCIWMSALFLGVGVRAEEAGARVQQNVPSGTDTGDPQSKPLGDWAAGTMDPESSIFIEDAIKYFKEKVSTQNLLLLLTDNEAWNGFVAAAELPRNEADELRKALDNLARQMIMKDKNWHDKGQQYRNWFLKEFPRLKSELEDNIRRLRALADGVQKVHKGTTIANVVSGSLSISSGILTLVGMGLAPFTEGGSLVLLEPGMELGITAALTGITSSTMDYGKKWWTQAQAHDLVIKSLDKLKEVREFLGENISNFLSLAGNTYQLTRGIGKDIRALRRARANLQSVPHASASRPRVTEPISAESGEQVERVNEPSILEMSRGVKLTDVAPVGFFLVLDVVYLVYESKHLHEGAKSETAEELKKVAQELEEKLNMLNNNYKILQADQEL
Experiment: Multi-Tox Assay (MultiTox-Fluor Multiplex Cytotoxicity Assay in tet-inducible APOL1 T-REx-HEK293 cells; Table 46 does not say which APOL1 variant G0/G1/G2)
Format: cell-based
Details: APOL1 variant not given; for IC50: IP50 = IC50 for cell proliferation

Compound | Multi-Tox Assay Max Activity (%) | IC50 [nM]
C[C@H]1C[C@@]2(C[C@@H](c3cn(CC4(CO)CCOCC4)nn3)N1)OC[C@@H](O)c1cc(Cl)sc12 [Compound 240] | 95.0 | 50 to 500
COc1cccc(Cn2cc([C@@H]3C[C@]4(C[C@H](C)N3)OC[C@@H](O)c3cc(Cl)sc34)nn2)c1 [Compound 278] | 100.0 | < 50
CCC(O)Cn1cc([C@@H]2C[C@]3(C[C@H](C)N2)OC[C@@H](O)c2cc(Cl)sc23)nn1 (stereo partly drawn) [Compound 284] | – | 50 to 500
C[C@H]1C[C@@]2(C[C@@H](c3cn(Cc4ccc5nc(O)[nH]c5c4)nn3)N1)OC[C@@H](O)c1cc(Cl)sc12 [Compound 249] | 92.0 | 50 to 500
Cc1nccn1CCCn1cc([C@@H]2C[C@]3(C[C@H](C)N2)OC[C@@H](O)c2cc(Cl)sc23)nn1 [Compound 251] | 99.0 | 50 to 500
C[C@H]1C[C@@]2(C[C@@H](c3cn(CC4(CO)CC4)nn3)N1)OCC(F)(F)c1cc(Cl)sc12 [Compound 357] | 99.0 | 50 to 500
COc1ccc(Cn2cc([C@@H]3C[C@]4(C[C@H](C)N3)OCC(F)(F)c3cc(Cl)sc34)nn2)cc1 [Compound 335] | 96.0 | 50 to 500
C[C@H]1C[C@@]2(C[C@@H](c3cn(Cc4ccc(CO)cc4)nn3)N1)OCC(F)(F)c1cc(Cl)sc12 [Compound 225, (4-((4-((2S,4S,6S)-2′-chloro-4′,4′-difluoro-2-methyl-4′,5′-dihydrospiro[piperidine-4,7′-thieno[2,3-c]pyran]-6-yl)-1H-1,2,3-triazol-1-yl)methyl)phenyl)methanol] | 97.0 | 50 to 500
C[C@H]1C[C@@]2(C[C@@H](c3cn(CCc4ccncn4)nn3)N1)OCC(F)(F)c1cc(Cl)sc12 [Compound 305] | 100.0 | < 50
CC(C)N1CC(Cn2cc([C@@H]3C[C@]4(C[C@H](C)N3)OCC(F)(F)c3cc(Cl)sc34)nn2)CC1=O (stereo partly drawn) [Compound 327] | 98.0 | < 50
COCCOCCn1cc([C@@H]2C[C@]3(C[C@H](C)N2)OC[C@@H](O)c2cc(Cl)sc23)nn1 [Compound 229] | 98.0 | 50 to 500
C[C@H]1C[C@@]2(C[C@@H](c3cn(Cc4cccnn4)nn3)N1)OC[C@@H](O)c1cc(Cl)sc12 [Compound 280] | 99.0 | 50 to 500
C[C@H]1C[C@@]2(C[C@@H](c3cn(CC4CCOC4)nn3)N1)OC[C@@H](O)c1cc(Cl)sc12 (stereo partly drawn) [Compound 269] | 99.0 | 50 to 500
CC(CO)CCn1cc([C@@H]2C[C@]3(C[C@H](C)N2)OC[C@@H](O)c2cc(Cl)sc23)nn1 (stereo partly drawn) [Compound 264] | 100.0 | < 50
C[C@H]1C[C@@]2(C[C@@H](c3cn(CC(=O)N4CCCCC4)nn3)N1)OC[C@@H](O)c1cc(Cl)sc12 [Compound 239] | 97.0 | 50 to 500
COc1ccc(Cn2cc([C@@H]3C[C@]4(C[C@H](C)N3)OC[C@@H](O)c3cc(Cl)sc34)nn2)cc1F [Compound 245] | 99.0 | < 50
Cc1ccccc1C(O)Cn1cc([C@@H]2C[C@]3(C[C@H](C)N2)OCC(F)(F)c2cc(Cl)sc23)nn1 (stereo partly drawn) [Compound 304] | 99.0 | 50 to 500
C[C@H]1C[C@@]2(C[C@@H](c3cn(CC4CCC4)nn3)N1)OC[C@@H](O)c1cc(Cl)sc12 [Compound 250] | 95.0 | < 50
Cc1cccc(OCC(O)Cn2cc([C@@H]3C[C@]4(C[C@H](C)N3)OC[C@@H](O)c3cc(Cl)sc34)nn2)c1 (stereo partly drawn) [Compound 260] | 99.0 | < 50

Compound | Multi-Tox Assay Max Activity (%) | IC50 [nM]
C[C@H]1C[C@@]2(C[C@@H](c3cn(CCC4CCCOC4)nn3)N1)OC[C@@H](O)c1cc(Cl)sc12 (stereo partly drawn) [Compound 273] | – | < 50
COc1ccc(Cn2cc([C@@H]3C[C@]4(C[C@H](C)N3)OC[C@@H](O)c3cc(Cl)sc34)nn2)cc1 [Compound 295] | 99.0 | < 50
Cc1ccc(Cn2cc([C@@H]3C[C@]4(C[C@H](C)N3)OC[C@@H](O)c3cc(Cl)sc34)nn2)nc1 [Compound 294] | 100.0 | 50 to 500
C[C@H]1C[C@@]2(C[C@@H](c3cn(CC4(CO)CC4)nn3)N1)OC[C@@H](O)c1cc(Cl)sc12 [Compound 242] | 97.0 | 50 to 500
COCC1(Cn2cc([C@@H]3C[C@]4(C[C@H](C)N3)OC[C@@H](O)c3cc(Cl)sc34)nn2)CC1 [Compound 270] | 93.0 | 50 to 500
Cc1ccc(Cn2cc([C@@H]3C[C@]4(C[C@H](C)N3)OCC(F)(F)c3cc(Cl)sc34)nn2)nc1 [Compound 334] | 96.0 | 50 to 500
CCn1cc(Cn2cc([C@@H]3C[C@]4(C[C@H](C)N3)OC[C@@H](O)c3cc(Cl)sc34)nn2)cn1 [Compound 290] | 99.0 | 50 to 500
C[C@H]1C[C@@]2(C[C@@H](c3cn(CCCS(C)(=O)=O)nn3)N1)OC[C@@H](O)c1cc(Cl)sc12 [Compound 228] | 100.0 | 50 to 500
C[C@H]1C[C@@]2(C[C@@H](c3cn(Cc4cccc(CO)c4)nn3)N1)OCC(F)(F)c1cc(Cl)sc12 [Compound 313] | 98.0 | 50 to 500
C[C@H]1C[C@@]2(C[C@@H](c3cn(Cc4ccccn4)nn3)N1)OCC(F)(F)c1cc(Cl)sc12 [Compound 332] | 96.0 | 50 to 500
C[C@H]1C[C@@]2(C[C@@H](c3cn(Cc4n[nH]c5ccccc45)nn3)N1)OCC(F)(F)c1cc(Cl)sc12 [Compound 349] | 91.0 | 50 to 500
C[C@H]1C[C@@]2(C[C@@H](c3cn(Cc4cccc(O)c4)nn3)N1)OC[C@@H](O)c1cc(Cl)sc12 [Compound 279] | 97.0 | 50 to 500
C[C@H]1C[C@@]2(C[C@@H](c3cn(CC4(F)CCOCC4)nn3)N1)OCC(F)(F)c1cc(Cl)sc12 [Compound 329] | – | > 500
C[C@H]1C[C@@]2(C[C@@H](c3cn(CC4CCOCC4)nn3)N1)OC[C@@H](O)c1cc(Cl)sc12 [Compound 267] | 99.0 | 50 to 500
COCCOCCn1cc([C@@H]2C[C@]3(C[C@H](C)N2)OCC(F)(F)c2cc(Cl)sc23)nn1 [Compound 340] | 98.0 | 50 to 500
CCOCCn1cc([C@@H]2C[C@]3(C[C@H](C)N2)OC[C@@H](O)c2cc(Cl)sc23)nn1 [Compound 257] | – | < 50
Cc1nnc(Cn2cc([C@@H]3C[C@]4(C[C@H](C)N3)OCC(F)(F)c3cc(Cl)sc34)nn2)[nH]1 [Compound 339] | 97.0 | 50 to 500
Cc1nc(Cn2cc([C@@H]3C[C@]4(C[C@H](C)N3)OC[C@@H](O)c3cc(Cl)sc34)nn2)oc1C [Compound 297] | 99.0 | < 50
C[C@H]1C[C@@]2(C[C@@H](c3cn(CC(O)c4ccccc4)nn3)N1)OC[C@@H](O)c1cc(Cl)sc12 (stereo partly drawn) [Compound 281] | 99.0 | 50 to 500

— US12421249B2, “Inhibitors of APOL1 and methods of using same” (Vertex Pharmaceuticals Incorporated, priority 2020, dated 2025)
